Patent publication US20090137572A1, “2-substituted-4-heteroaryl-pyrimidines useful for the treatment of proliferative disorders” (priority 2004, published 2009)

Tests used:
Assay type in all cases: biochemical
[1] = molecular target: NEK2a (Homo sapiens, UniProt P51955); assay: Kinase selectivity profile, NEK2a; conditions: 5 μM test compound, compared to control; ATP 50 μM
Experimental: (§1) The kinase selectivity profiles of selected example compounds were determined, essentially as described (Bain, J.; McLauchlan, H.; Elliott, M.; Cohen, P. Biochemical Journal, 2003, 371, 199.); the results are shown in Tables 3 & 4. For the assays shown in Table 3, the kinases were assayed at the following ATP concentrations: SAPK4, PKBΔph, GSK3b, SAPK3, CK2, MKK1, PIM2, IKKB, ERK8, and PRK2 at 5 μM; JNK, PRAK, ROCK-II, SAPK2b, CDK2, CHK1, MSK1, CSK, P70S6K, PKA, CK1, MAPKAP-K2, SGK, PKCa, PDK1, NEK 7, and MAPKAP-K3 at 20 μM; SAPK2a, LCK, AMPK, MAPK2, DYRK1a, MAPKAP-K1a, NEK-6, NEK2a, PBK, CAMK-1, SRPK-1, JNK3, MNK2, RSK2, MNK1, PKBB, and SmMLCK at 50 μM. For the assays in Table 4 the ATP concentration was 100 μM throughout.

[2] = molecular target: MAPK2/ERK2 (Homo sapiens, UniProt P28482); assay: Kinase selectivity profile, MAPK2/ERK2; conditions: 5 μM test compound, compared to control; ATP 50 μM
Experimental: as §1

[3] = molecular target: MSK1 (Homo sapiens, UniProt O75582); assay: Kinase selectivity profile, MSK1; conditions: 5 μM test compound, compared to control; ATP 20 μM
Experimental: as §1

[4] = molecular target: MKK1 (Homo sapiens, UniProt Q02750); assay: Kinase selectivity profile, MKK1; conditions: 5 μM test compound, compared to control; ATP 5 μM
Experimental: as §1

[5] = molecular target: CAMK-1 (Homo sapiens, UniProt Q14012); assay: Kinase selectivity profile, CAMK-1; conditions: 5 μM test compound, compared to control; ATP 50 μM
Experimental: as §1

[6] = molecular target: MAPKAP-K3 (Homo sapiens, UniProt Q16644); assay: Kinase selectivity profile, MAPKAP-K3; conditions: 5 μM test compound, compared to control; ATP 20 μM
Experimental: as §1

[7] = molecular target: NEK7 (Homo sapiens, UniProt Q8TDX7); assay: Kinase selectivity profile, NEK7; conditions: 5 μM test compound, compared to control; ATP 20 μM
Experimental: as §1

[8] = molecular target: SAPK2a/p38 (Homo sapiens, UniProt Q16539); assay: Kinase selectivity profile, SAPK2a/p38; conditions: 5 μM test compound, compared to control; ATP 50 μM
Experimental: as §1

[9] = molecular target: MAPKAP-K2 (Homo sapiens, UniProt P49137); assay: Kinase selectivity profile, MAPKAP-K2; conditions: 5 μM test compound, compared to control; ATP 20 μM
Experimental: as §1

[10] = system: PKB; assay: Kinase selectivity profile, PKB; conditions: 5 μM test compound, compared to control; ATP 5 μM (PKBΔph)
Experimental: as §1

[11] = molecular target: MNK2 (Homo sapiens, UniProt Q9HBH9); assay: Kinase selectivity profile, MNK2; conditions: 5 μM test compound, compared to control; ATP 50 μM
Experimental: as §1

[12] = molecular target: MAPKAP-K1a (Homo sapiens, UniProt Q15418); assay: Kinase selectivity profile, MAPKAP-K1a; conditions: 5 μM test compound, compared to control; ATP 50 μM
Experimental: as §1

[13] = molecular target: CSK (Homo sapiens, UniProt P41240); assay: Kinase selectivity profile, CSK; conditions: 5 μM test compound, compared to control; ATP 20 μM
Experimental: as §1

[14] = molecular target: SGK (Homo sapiens, UniProt O00141); assay: Kinase selectivity profile, SGK; conditions: 5 μM test compound, compared to control; ATP 20 μM
Experimental: as §1

[15] = molecular target: CDK2-cyclin A (Homo sapiens, UniProt P24941); assay: Kinase selectivity profile, CDK2/cyclin A; conditions: 5 μM test compound, compared to control; ATP 20 μM
Experimental: as §1

[16] = molecular target: ROCK-II (Homo sapiens, UniProt O75116); assay: Kinase selectivity profile, ROCK-II; conditions: 5 μM test compound, compared to control; ATP 20 μM
Experimental: as §1

[17] = system: PHK; assay: Kinase selectivity profile, PHK; conditions: 5 μM test compound, compared to control
Experimental: as §1

[18] = molecular target: PDK1 (Homo sapiens, UniProt O15530); assay: Kinase selectivity profile, PDK1; conditions: 5 μM test compound, compared to control; ATP 20 μM
Experimental: as §1

[19] = molecular target: DYRK1a (Homo sapiens, UniProt Q13627); assay: Kinase selectivity profile, DYRK1a; conditions: 5 μM test compound, compared to control; ATP 50 μM
Experimental: as §1

[20] = molecular target: SAPK3/p38g (Homo sapiens, UniProt P53778); assay: Kinase selectivity profile, SAPK3/p38g; conditions: 5 μM test compound, compared to control; ATP 5 μM
Experimental: as §1

[21] = system: CK2; assay: Kinase selectivity profile, CK2; conditions: 5 μM test compound, compared to control; ATP 5 μM
Experimental: as §1

[22] = molecular target: SRPK1 (Homo sapiens, UniProt Q96SB4); assay: Kinase selectivity profile, SRPK1; conditions: 5 μM test compound, compared to control; ATP 50 μM
Experimental: as §1

[23] = molecular target: CHK1 (Homo sapiens, UniProt O14757); assay: Kinase selectivity profile, CHK1; conditions: 5 μM test compound, compared to control; ATP 20 μM
Experimental: as §1

[24] = molecular target: smMLCK (Homo sapiens, UniProt Q15746); assay: Kinase selectivity profile, smMLCK; conditions: 5 μM test compound, compared to control; ATP 50 μM
Experimental: as §1

[25] = molecular target: Lck (Homo sapiens, UniProt P06239); assay: Kinase selectivity profile, Lck; conditions: 5 μM test compound, compared to control; ATP 50 μM
Experimental: as §1

[26] = molecular target: GSK3b (Homo sapiens, UniProt P49841); assay: Kinase selectivity profile, GSK3b; conditions: 5 μM test compound, compared to control; ATP 5 μM
Experimental: as §1

[27] = molecular target: PIM2 (Homo sapiens, UniProt Q9P1W9); assay: Kinase selectivity profile, PIM2; conditions: 5 μM test compound, compared to control; ATP 5 μM
Experimental: as §1

[28] = molecular target: Aurora B (Homo sapiens, UniProt Q96GD4); assay: Kinase selectivity profile, Aurora B; conditions: 5 μM test compound, compared to control
Experimental: as §1

[29] = molecular target: PRK2 (Homo sapiens, UniProt Q16513); assay: Kinase selectivity profile, PRK2; conditions: 5 μM test compound, compared to control; ATP 5 μM
Experimental: as §1

[30] = molecular target: PKBb (Homo sapiens, UniProt P31751); assay: Kinase selectivity profile, PKBb; conditions: 5 μM test compound, compared to control; ATP 50 μM
Experimental: as §1

[31] = molecular target: PKCa (Homo sapiens, UniProt P17252); assay: Kinase selectivity profile, PKCa; conditions: 5 μM test compound, compared to control; ATP 20 μM
Experimental: as §1

[32] = molecular target: SAPK2b/p38β2 (Homo sapiens, UniProt Q15759); assay: Kinase selectivity profile, SAPK2b/p38β2; conditions: 5 μM test compound, compared to control; ATP 20 μM
Experimental: as §1

[33] = system: AMPK; assay: Kinase selectivity profile, AMPK; conditions: 5 μM test compound, compared to control; ATP 50 μM
Experimental: as §1

[34] = molecular target: p70 S6K (Homo sapiens, UniProt P23443); assay: Kinase selectivity profile, p70 S6K; conditions: 5 μM test compound, compared to control; ATP 20 μM
Experimental: as §1

Chain of MAPK2/ERK2 (P28482 whole entry): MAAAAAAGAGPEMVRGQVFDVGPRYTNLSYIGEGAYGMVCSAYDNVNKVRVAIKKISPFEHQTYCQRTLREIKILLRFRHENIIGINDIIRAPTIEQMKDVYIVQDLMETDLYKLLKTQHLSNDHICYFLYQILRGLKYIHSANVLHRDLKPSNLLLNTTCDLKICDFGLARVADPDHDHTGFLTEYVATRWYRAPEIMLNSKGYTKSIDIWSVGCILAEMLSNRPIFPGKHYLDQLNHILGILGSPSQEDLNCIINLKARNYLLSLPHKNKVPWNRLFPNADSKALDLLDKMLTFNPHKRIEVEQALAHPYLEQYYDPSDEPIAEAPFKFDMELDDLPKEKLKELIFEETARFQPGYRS
Chain of CSK (P41240 whole entry, species assumed): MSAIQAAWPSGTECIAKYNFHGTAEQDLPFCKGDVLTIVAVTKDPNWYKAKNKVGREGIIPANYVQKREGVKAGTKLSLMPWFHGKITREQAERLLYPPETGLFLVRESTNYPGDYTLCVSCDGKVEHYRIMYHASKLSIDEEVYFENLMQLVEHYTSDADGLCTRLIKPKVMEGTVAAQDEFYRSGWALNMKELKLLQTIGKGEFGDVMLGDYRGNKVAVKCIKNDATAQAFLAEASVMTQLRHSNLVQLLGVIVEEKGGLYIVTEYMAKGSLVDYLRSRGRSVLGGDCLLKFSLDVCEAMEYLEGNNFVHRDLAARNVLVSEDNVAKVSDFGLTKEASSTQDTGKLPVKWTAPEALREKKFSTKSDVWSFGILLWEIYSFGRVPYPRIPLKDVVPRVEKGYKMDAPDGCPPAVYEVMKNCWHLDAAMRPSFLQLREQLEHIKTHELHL
Chain of PDK1 (O15530 whole entry): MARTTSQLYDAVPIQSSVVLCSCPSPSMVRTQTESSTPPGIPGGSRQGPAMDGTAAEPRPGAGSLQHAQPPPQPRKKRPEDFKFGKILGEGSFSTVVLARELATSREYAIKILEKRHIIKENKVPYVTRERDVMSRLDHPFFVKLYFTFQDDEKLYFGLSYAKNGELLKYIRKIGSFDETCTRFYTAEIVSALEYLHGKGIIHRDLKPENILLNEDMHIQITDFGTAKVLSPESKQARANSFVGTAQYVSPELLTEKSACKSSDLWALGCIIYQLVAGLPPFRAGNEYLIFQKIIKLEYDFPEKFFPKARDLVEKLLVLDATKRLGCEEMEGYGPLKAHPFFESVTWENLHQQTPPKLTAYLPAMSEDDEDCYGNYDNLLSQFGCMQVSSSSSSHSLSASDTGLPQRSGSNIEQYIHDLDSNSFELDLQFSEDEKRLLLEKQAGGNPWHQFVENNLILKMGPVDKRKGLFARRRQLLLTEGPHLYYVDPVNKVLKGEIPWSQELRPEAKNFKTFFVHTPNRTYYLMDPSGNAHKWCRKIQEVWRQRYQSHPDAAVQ
Chain of MAPKAP-K2 (P49137 whole entry, species assumed): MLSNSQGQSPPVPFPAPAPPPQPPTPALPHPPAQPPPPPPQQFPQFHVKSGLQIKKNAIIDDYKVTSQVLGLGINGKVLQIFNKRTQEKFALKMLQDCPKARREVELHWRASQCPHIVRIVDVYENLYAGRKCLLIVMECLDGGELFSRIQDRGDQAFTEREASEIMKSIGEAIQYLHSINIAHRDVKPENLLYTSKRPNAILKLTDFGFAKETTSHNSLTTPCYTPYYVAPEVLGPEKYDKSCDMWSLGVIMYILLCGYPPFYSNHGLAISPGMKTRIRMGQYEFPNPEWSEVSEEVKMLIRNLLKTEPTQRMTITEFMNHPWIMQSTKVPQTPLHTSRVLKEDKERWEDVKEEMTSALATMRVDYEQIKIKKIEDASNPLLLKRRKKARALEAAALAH
Chain of GSK3b (P49841 whole entry, species assumed): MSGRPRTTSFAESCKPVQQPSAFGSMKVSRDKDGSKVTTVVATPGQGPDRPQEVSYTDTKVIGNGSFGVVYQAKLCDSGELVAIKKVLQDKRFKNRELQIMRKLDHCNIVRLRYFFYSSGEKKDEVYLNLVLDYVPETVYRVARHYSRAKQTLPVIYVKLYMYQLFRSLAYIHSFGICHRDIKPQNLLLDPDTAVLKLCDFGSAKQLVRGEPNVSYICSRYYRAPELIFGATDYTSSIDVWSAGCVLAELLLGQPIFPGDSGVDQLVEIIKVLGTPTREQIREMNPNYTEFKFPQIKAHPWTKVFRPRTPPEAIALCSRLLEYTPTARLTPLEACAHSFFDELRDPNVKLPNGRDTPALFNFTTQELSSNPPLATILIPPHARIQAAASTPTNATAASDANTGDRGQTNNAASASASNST
Chain of CAMK-1 (Q14012 whole entry, species assumed): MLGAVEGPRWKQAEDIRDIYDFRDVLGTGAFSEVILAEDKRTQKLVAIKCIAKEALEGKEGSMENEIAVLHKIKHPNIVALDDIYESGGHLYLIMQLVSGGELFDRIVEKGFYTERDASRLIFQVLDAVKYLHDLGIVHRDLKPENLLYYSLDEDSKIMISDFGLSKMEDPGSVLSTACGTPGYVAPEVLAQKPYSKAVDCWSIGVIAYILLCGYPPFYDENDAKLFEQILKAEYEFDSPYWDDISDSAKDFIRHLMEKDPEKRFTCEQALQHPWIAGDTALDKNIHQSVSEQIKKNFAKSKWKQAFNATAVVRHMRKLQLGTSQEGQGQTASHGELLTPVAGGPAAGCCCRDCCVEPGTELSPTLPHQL
Chain of Aurora B (Q96GD4 whole entry): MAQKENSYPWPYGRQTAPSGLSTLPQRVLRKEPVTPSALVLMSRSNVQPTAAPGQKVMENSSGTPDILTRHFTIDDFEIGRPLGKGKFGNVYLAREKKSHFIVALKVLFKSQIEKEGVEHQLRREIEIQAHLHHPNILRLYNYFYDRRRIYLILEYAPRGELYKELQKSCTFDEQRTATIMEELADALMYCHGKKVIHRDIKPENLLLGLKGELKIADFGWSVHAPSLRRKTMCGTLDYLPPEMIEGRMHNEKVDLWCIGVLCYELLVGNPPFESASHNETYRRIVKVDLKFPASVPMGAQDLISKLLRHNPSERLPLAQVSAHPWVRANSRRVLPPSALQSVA
Chain of SAPK3/p38g (P53778 whole entry): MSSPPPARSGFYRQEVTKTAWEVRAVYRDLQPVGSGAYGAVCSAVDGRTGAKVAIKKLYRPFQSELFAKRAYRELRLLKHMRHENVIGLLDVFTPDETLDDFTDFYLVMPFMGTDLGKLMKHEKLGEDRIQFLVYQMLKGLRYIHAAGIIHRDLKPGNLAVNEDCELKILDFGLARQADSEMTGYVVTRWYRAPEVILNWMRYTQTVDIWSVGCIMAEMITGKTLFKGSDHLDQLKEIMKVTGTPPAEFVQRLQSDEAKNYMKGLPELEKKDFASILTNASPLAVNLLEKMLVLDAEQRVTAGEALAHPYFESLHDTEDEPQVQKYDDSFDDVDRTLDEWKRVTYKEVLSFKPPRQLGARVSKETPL
Chain of PRK2 (Q16513 whole entry, species assumed): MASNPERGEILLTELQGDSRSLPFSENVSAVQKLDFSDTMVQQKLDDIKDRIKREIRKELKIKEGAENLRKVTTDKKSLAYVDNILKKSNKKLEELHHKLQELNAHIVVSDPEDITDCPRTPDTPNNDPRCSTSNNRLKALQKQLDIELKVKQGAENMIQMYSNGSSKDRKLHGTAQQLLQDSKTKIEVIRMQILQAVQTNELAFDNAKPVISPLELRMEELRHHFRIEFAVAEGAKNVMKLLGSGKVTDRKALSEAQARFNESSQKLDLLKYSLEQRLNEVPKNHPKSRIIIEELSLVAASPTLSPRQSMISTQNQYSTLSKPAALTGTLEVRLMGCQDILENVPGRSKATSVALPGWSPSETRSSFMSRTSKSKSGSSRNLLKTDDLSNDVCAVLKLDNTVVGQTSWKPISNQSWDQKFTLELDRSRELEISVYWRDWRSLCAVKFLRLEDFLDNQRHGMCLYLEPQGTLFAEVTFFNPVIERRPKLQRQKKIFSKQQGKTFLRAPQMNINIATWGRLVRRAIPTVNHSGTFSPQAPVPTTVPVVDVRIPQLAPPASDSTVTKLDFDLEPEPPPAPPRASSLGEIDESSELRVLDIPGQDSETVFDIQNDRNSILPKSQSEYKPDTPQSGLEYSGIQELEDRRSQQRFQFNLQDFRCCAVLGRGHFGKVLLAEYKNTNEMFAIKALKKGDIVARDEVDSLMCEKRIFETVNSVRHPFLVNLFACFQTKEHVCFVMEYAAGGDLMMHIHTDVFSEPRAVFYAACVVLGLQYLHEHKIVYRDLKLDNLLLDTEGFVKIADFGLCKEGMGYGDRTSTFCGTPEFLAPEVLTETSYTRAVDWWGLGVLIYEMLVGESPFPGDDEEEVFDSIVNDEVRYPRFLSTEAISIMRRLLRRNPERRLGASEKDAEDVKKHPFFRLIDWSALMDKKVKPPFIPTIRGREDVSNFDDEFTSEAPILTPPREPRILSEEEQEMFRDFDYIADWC
Chain of NEK7 (Q8TDX7 whole entry, species assumed): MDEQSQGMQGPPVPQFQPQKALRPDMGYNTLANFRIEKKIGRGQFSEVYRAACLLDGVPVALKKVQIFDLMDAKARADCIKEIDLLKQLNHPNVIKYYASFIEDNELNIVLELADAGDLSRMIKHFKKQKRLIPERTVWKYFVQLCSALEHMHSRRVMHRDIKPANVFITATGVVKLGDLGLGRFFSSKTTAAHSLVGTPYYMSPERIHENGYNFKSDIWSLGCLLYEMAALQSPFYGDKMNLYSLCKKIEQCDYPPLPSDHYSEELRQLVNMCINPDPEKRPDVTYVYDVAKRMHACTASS
Chain of MAPKAP-K3 (Q16644 whole entry, species assumed): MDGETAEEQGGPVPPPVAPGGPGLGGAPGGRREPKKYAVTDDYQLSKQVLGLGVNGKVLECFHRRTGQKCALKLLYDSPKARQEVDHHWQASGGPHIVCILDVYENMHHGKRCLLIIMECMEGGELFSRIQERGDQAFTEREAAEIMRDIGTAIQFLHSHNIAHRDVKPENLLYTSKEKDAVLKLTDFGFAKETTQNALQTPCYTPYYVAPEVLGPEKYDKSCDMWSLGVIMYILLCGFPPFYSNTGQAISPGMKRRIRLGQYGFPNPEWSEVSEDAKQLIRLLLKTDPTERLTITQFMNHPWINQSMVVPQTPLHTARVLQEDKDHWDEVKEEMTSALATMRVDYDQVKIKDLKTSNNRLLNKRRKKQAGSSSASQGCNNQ

SMILES: CCNc1nc(C)c(-c2ccnc(Nc3ccc(N4CCNCC4)cc3)n2)s1 [Compound 59, [4-(2-Ethylamino-4-methyl-thiazol-5-yl)-pyrimidin-2-yl]-(4-piperazin-1-yl-phenyl)-amine]
- remaining activity at 5 µM [1]: 9%
- remaining activity at 5 µM [2]: 59%
- remaining activity at 5 µM [3]: 45%
- remaining activity at 5 µM [4]: 25%
- remaining activity at 5 µM [5]: 30%
- remaining activity at 5 µM [6]: 87%
- remaining activity at 5 µM [7]: 50%
- remaining activity at 5 µM [8]: 39%
- remaining activity at 5 µM [9]: 84%
- Remaining activity (%) PKB [10]: 82%
- remaining activity at 5 µM [11]: 20%
- remaining activity at 5 µM [12]: 14%
- remaining activity at 5 µM [13]: 14%
- remaining activity at 5 µM [14]: 0%
- remaining activity at 5 µM [15]: 1%
- remaining activity at 5 µM [16]: 5%
- Remaining activity (%) PHK [17]: 3%
- remaining activity at 5 µM [18]: 20%
- remaining activity at 5 µM [19]: 4%
- remaining activity at 5 µM [20]: 69%
- Remaining activity (%) CK2 [21]: 2%
- remaining activity at 5 µM [22]: 88%
- remaining activity at 5 µM [23]: 10%
- remaining activity at 5 µM [24]: 10%
- remaining activity at 5 µM [25]: 1%
- remaining activity at 5 µM [26]: 37%
- remaining activity at 5 µM [27]: 80%
- remaining activity at 5 µM [28]: 4%
- remaining activity at 5 µM [29]: 8%
- remaining activity at 5 µM [30]: 75%
- remaining activity at 5 µM [31]: 33%
- remaining activity at 5 µM [32]: 36%
- Remaining activity (%) AMPK [33]: 2%
- remaining activity at 5 µM [34]: 13%

SMILES: Cc1nc(CS(=O)(=O)c2cccs2)sc1-c1ccnc(Nc2ccc(N3CCOCC3)cc2)n1 [Compound 138, {4-[4-Methyl-2-(thiophene-2-sulfonylmethyl)-thiazol-5-yl]-pyrimidin-2-yl}-(4-morpholin-4-yl-phenyl)-amine]
- remaining activity at 5 µM [1]: 6%
- remaining activity at 5 µM [2]: 39%
- remaining activity at 5 µM [3]: 69%
- remaining activity at 5 µM [4]: 21%
- remaining activity at 5 µM [5]: 91%
- remaining activity at 5 µM [6]: 104%
- remaining activity at 5 µM [7]: 79%
- remaining activity at 5 µM [8]: 33%
- remaining activity at 5 µM [9]: 84%
- Remaining activity (%) PKB [10]: 91%
- remaining activity at 5 µM [11]: 27%
- remaining activity at 5 µM [12]: 34%
- remaining activity at 5 µM [13]: 30%
- remaining activity at 5 µM [14]: 5%
- remaining activity at 5 µM [15]: 9%
- remaining activity at 5 µM [16]: 14%
- Remaining activity (%) PHK [17]: 15%
- remaining activity at 5 µM [18]: 55%
- remaining activity at 5 µM [19]: 27%
- remaining activity at 5 µM [20]: 74%
- Remaining activity (%) CK2 [21]: 5%
- remaining activity at 5 µM [22]: 110%
- remaining activity at 5 µM [23]: 55%
- remaining activity at 5 µM [24]: 44%
- remaining activity at 5 µM [25]: 7%
- remaining activity at 5 µM [26]: 21%
- remaining activity at 5 µM [27]: 93%
- remaining activity at 5 µM [28]: 5%
- remaining activity at 5 µM [29]: 78%
- remaining activity at 5 µM [30]: 92%
- remaining activity at 5 µM [31]: 41%
- remaining activity at 5 µM [32]: 42%
- Remaining activity (%) AMPK [33]: 28%
- remaining activity at 5 µM [34]: 41%
